Test results as given in patent publication US20260216348A1, “IRAK DEGRADATION AGENT AND USE THEREOF” (Increland, priority 2023, published 2026).

Legend:
[1] = tested on: CIA-induced rheumatoid arthritis model; assay: CIA-induced rheumatoid arthritis model; assay type: in vivo, DBA/1J mice; conditions: BID, Model 12.31 ± 2.97, Mean ± SD, n = 7
Experimental: 1. DBA/1J mice, male, SPF grade, were pre-acclimatized in the animal facility for one week. 2. On day 1, for the primary immunization, 2 mg/mL bovine type II collagen was mixed thoroughly with an equal volume of complete Freund's adjuvant on ice using a homogenizer until fully emulsified. 100 μL of the collagen emulsion (final concentration 1 mg/mL) was intradermally injected at 2 cm from the base of the mouse tail. Medical iodophor was used to disinfect the tail after injection to prevent tail necrosis, which was conducted for 3 consecutive days. 3. On day 21, bovine type II collagen solution was thoroughly mixed and emulsified with an equal volume of Freund's incomplete adjuvant, using the same method as the primary immunization. 4. On day 26, LPS was administered intraperitoneally at a dose of 50 μg/animal to induce disease. 5. On day 28, the affected mice were scored according to Table 33 and the diameter of their ankle joints was measured. Mice were randomly grouped and treated with medication based on their scores and ankle diameter.

[2] = tested on: IMQ psoriasis model; assay: IMQ (imiquimod)-induced psoriasis model; assay type: in vivo, BALB/c mice; conditions: 100 mg/kg, BID, Mean ± SD, n = 7
Experimental: Male BALB/c mice, aged 6-8 weeks, were randomly divided into 9 groups after 1 week of acclimatization: blank control group, imiquimod model group (IMQ group, corresponding to the model groups in FIGS. 1 and 2), clobetasol propionate cream group (CLO group), TYKI (BMS-986165) group, IRAK4 protein degrader KT-474 (from patent WO2020113233) group (100 mg/kg), and the compound of the present disclosure (at an appropriate dose), with 6-7 mice in each group. One day before modeling, the hair on the backs of the mice was removed with depilatory cream, with a depilated area of 2×2 cm^2. On the day of modeling, IMQ cream was used for modeling, and the corresponding drugs were administered intragastrically for treatment. The compound of the present disclosure (at an appropriate dose) was administered intragastrically once daily, and IMQ cream was applied to the hairless area on the back and left ear of mice 2 h after the first administration. […] The blank group and the IMQ group were administered with vehicle intragastrically twice daily (in the morning and evening), with an 8-h interval between the two intragastric administrations. At 2 h after the first intragastric administration, vaseline and IMQ cream were applied topically to the depilated back and ears of the mice, respectively. The dosage of IMQ cream administered to the depilated area on the back and the left ear was 80 mg and 10 mg, respectively, and the mice in each group were administered the cream for 5 consecutive days.
Reference was made to the Psoriasis Area and Severity Index (PASI) scoring criteria. The psoriasis, erythema, and thickness of skin lesions on the back were scored from 0 to 4 every morning from day 1 of modeling, with the scoring criteria as shown in Table 28. The 3 were added up to obtain a total score, i.e., a total PASI score. The ear thickness of the left ear of the mouse was measured using a digital vernier caliper three times every morning from day 1 of modeling, to obtain a mean value.

[3] = tested on: DSS-induced enteritis model; assay: DSS-induced enteritis (colitis) model; assay type: in vivo, mice; conditions: 100 mpk, po, BID; Model 10.33 ± 1.11; Mean ± SD, n = 7
Excerpt: The experimental mice were pre-acclimatized in the animal facility for one week; at the beginning of the experiment, the mice were given medication intragastrically daily according to their body weight. After the completion of intragastric administration in each group, mice had direct access to water bottles for free drinking. The blank group received normal water, while the other groups received pre-prepared DSS water. Each afternoon, the mice's abdomens were massaged to stimulate defecation, and one fecal pellet was collected onto a white porcelain plate. Fecal consistency was judged and recorded according to Table 30. The fecal occult blood qualitative test kit (Yuanye Biotechnology, #R24187-300T) was used to test for occult blood in feces and the results were interpreted according to Table 31.

Compound	DAI Score d 42 ([1]; 100 mg/kg)	PASI Score d 6 ([2]; Model 8.85 ± 1.66)	ΔSkin Thickness Change (μm) d 6 ([2]; Model 80.95 ± 6.16) [μm]	DAI Score d 8 [3]	DAI Score d 42 ([1]; 30 mg/kg)
Cn1c(=O)n(C2CCC(=O)NC2=O)c2cccc(C#CCOC3CCN(C[C@H]4CC[C@H](n5cc(NC(=O)c6cnn7ccc(N8C[C@H]9C[C@@H]8CO9)nc67)c(C(F)F)n5)CC4)CC3)c21 (some centres unmarked) [KT474, reference compound]	11.63 ± 2.55	6.93 ± 2.36	31.90 ± 9.90	5.71 ± 1.28	–
C[C@@H]1CCN(C(=O)CC#N)C[C@@H]1N(C)c1ncnc2[nH]ccc12 [tofacitinib, Tofacitinib, reference compound]	–	–	–	–	10.67 ± 3.13
